This passage reports IC50 results from patent US10280184B2, “Heterocyclic kinase inhibitors” (AbbVie Inc., priority 2014, dated 2019).

Structures are written as SMILES. pIC50: −log10 of the molar value.

Chain of CSF-1R (P07333 538-910): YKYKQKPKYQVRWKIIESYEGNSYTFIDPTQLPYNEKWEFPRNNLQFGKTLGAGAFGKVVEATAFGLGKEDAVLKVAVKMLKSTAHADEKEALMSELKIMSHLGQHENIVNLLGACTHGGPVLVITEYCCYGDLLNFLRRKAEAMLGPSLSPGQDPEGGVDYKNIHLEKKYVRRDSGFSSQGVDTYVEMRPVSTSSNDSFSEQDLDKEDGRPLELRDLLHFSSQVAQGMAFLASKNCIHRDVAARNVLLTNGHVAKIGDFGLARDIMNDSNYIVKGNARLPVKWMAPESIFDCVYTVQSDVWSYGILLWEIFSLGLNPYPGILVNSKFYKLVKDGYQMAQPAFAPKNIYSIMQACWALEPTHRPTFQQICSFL

The target of this experiment is CSF-1R (Homo sapiens (Human), UniProt P07333). Kind of experiment: In vitro CSF-1R kinase activity measured by trFRET. Type of experiment: biochemical. To be noted: recombinant human catalytic domain (aa 538-910), 0.1 mM ATP; read-out: CSF-1R enzyme IC50. The method, then:
In Vitro CSF-1R Kinase Activity Measured by Time-Resolved Fluorescence Resonance Energy Transfer (trFRET)
The CSF-1R construct corresponds to recombinant human catalytic domain (aa 538-910), which was purchased from Invitrogen (cat #PV4092). CSF-1R was mixed with peptide substrate (biotin-TYR1, Sequence: Biotin-(Ahx)-GAEEEIYAAFFA-COOH, 4 μM final) at varying inhibitor concentrations in reaction buffer: 50 mM MOPSO pH 6.5, 10 mM MgCl2, 2 mM MnCl2, 2.5 mM DTI, 0.01% BSA, 0.1 mM Na3VO4 and 0.1 mM ATP. After about 60 min incubation at rt, the reaction was quenched by addition of EDTA (final concentration: 100 mM) and developed by addition of detection reagents (final approximate concentrations: 30 mM HEPES pH 7.0, 0.06% BSA, 0.006% Tween-20, 0.24 M KF, 80 ng/mL PT66K (europium labeled anti-phosphotyrosine antibody cat #61T66KLB Cisbio, Bedford, Mass.) and 0.6 μg/mL SAXL (Phycolink streptavidin-allophycocyanin acceptor, cat #PJ25S, Prozyme, San Leandro, Calif.). The developed reaction was incubated in the dark for about 60 min at rt, then read via a time-resolved fluorescence detector (Rubystar, BMG) using a 337 nm laser for excitation and monitoring emission wavelength at 665 nm. Within the linear range of the assay, the observed signal at 665 nm was directly related to phosphorylated product and can be used to calculate the IC50 values.
As to `CN1CCC(n2cc(Nc3nc(C4CCCCC4)cn4ncnc34)cn2)CC1` [Example 14, 6-cyclohexyl-N-(1-(1-methylpiperidin-4-yl)-1H-pyrazol-4-yl)-[1,2,4]triazolo[1,5-a]pyrazin-8-amine], the pIC50 is above 7.00.

Consider `OCCCn1cc(Nc2nc(C3CCCCC3)cn3ncnc23)cn1` [Example 15, 3-(4-((6-cyclohexyl-[1,2,4]triazolo[1,5-a]pyrazin-8-yl)amino)-1H-pyrazol-1-yl)propan-1-ol], for which the pIC50 is above 7.00. In the case of `O=C(O)[C@H]1CC[C@@H](n2cc(Nc3nc(C4CCCCC4)cn4ncnc34)cn2)CC1` [Example 16, cis-4-(4-((6-cyclohexyl-[1,2,4]triazolo[1,5-a]pyrazin-8-yl)amino)-1H-pyrazol-1-yl)cyclohexanecarboxylic acid], the pIC50 was above 7.00. `C[C@@H]1C[C@@H](n2cc(Nc3nc(C4CCCCC4)cn4ncnc34)cn2)C[C@H](C)N1` [Example 17, 6-cyclohexyl-N-(1-((2R,4S,6S)-2,6-dimethylpiperidin-4-yl)-1H-pyrazol-4-yl)-[1,2,4]triazolo[1,5-a]pyrazin-8-amine]: the pIC50 is above 7.00. On to `CC(=O)N1CCC(n2cc(Nc3nc(C4CCCCC4)cn4ncnc34)cn2)CC1` [F.1.43, 1-(4-(4-((6-cyclohexyl-[1,2,4]triazolo[1,5-a]pyrazin-8-yl)amino)-1H-pyrazol-1-yl)piperidin-1-yl)ethanone], for which the pIC50 was above 7.00. In the case of `CNC(=O)N1CCC(n2cc(Nc3nc(C4CCCCC4)cn4ncnc34)cn2)CC1` [F.1.44, 4-(4-((6-cyclohexyl-[1,2,4]triazolo[1,5-a]pyrazin-8-yl)amino)-1H-pyrazol-1-yl)-N-methylpiperidine-1-carboxamide], the pIC50 is above 7.00. Take `O[C@H]1CCC[C@H](n2cc(Nc3nc(C4CCCCC4)cn4ncnc34)cn2)C1` [G.1.1]: the pIC50 is above 7.00. Turning to `O[C@@H]1CCC[C@@H](n2cc(Nc3nc(C4CCCCC4)cn4ncnc34)cn2)C1` [G.1.2], the pIC50 was above 7.00. The same measure for `O[C@@H]1CCC[C@H](n2cc(Nc3nc(C4CCCCC4)cn4ncnc34)cn2)C1` [G.1.3]: above 7.00.
